Test [1] addresses β2AR (Homo sapiens, UniProt P07550). The experiment in a line: cAMP FRET sensor assay, competitive displacement of isoprenaline by antagonists in HEK293 cells. Format: cell-based. Here is the method: The culture was maintained by subculturing the cells every 4 to 5 days using the standard trypsinization procedure. Before measurements, cells were trypsinated and transferred in a 96-well glass bottom plate (MatTek Corporation; Cat. No. P96GC-1.5–5-F) to contain 10,000–30,000 cells per well in 200 µL of DMEM media. After 24 h incubation in 5% CO2 at 37 °C, the cells were washed with HBSS pH 7.2 (200 µL), and the wells were filled with 200 µL HBSS. The DMSO stock solutions of the fluorescent probes were diluted 5,000 times in HBSS and used in experiments. In the antagonist inhibition experiment, we used β1 and β2 adrenoceptor agonist isoprenaline (abcr GmbH) as a positive control causing cAMP elevation. […] The fluorescent ligand solutions of different concentrations in HBSS were premixed with the isoprenaline solution. 50 µL of a final solution was added to each well and the measurement was started upon addition and continued for 1 h in 10 min intervals between the readouts (inclusive).
The ligands were added using an automated pipette to initiate the sensor response. FRET readout from the cAMP sensor was performed on a multiwell plate reader Spark 20 M (Tecan) at room temperature (25 °C). Fluorescence readout amplitudes were calculated from time series for different ligand concentrations, following background subtraction (media only). […] Data were derived from 3 independent experiments and each independent experiment was performed in triplicate.
Sensor response R(CFP/FRET) was calculated using (1):1 R(CFP/FRET)=(FimTurquoise−FbkgmTurquoise)/(FiFRET−FbkgFRET) where F i ^mTurquoise – mTurquoise fluorescence intensity in the wells with cells; F bkg ^mTurquoise - mTurquoise fluorescence intensity in the control wells without cells; F i ^FRET – FRET signal intensity in the wells with cells; F bkg ^FRET – FRET signal intensity in the control wells without cells. For every result, R(CFP/FRET) ratio was normalized to the R(CFP/FRET) response of DMSO sample.
K i ^app were calculated using the Cheng-Prusoff equation (2):2 Kiapp=IC50/[A]/EC50+1 where [A] – concentration of the isoprenaline; IC50 – fitted half maximal inhibitory concentration of labeled antagonist; EC50 – fitted half maximal response concentration of isoprenaline.

Test [2] addresses T1, β2AR-YFP fusion protein (Homo sapiens, UniProt P07550).
T1 construct: host or cells: U2OS
The experiment in a line: Confocal imaging of living U2OS cells expressing β2AR-YFP (staining, internalization, competitive displacement, no-wash). Format: cell-based. The following applies: 90 min, 100 nM carazolol-KK114 (24), 5 nM ab118171, no washing.

This passage reports IC50, Ki and no-wash imaging staining results from paper PMC5614969, “High-Affinity Functional Fluorescent Ligands for Human β-Adrenoceptors” (Scientific Reports, 2017).

Read-outs that look alike come from different tables or passages of the source.

Chain of β2AR (P07550 whole entry): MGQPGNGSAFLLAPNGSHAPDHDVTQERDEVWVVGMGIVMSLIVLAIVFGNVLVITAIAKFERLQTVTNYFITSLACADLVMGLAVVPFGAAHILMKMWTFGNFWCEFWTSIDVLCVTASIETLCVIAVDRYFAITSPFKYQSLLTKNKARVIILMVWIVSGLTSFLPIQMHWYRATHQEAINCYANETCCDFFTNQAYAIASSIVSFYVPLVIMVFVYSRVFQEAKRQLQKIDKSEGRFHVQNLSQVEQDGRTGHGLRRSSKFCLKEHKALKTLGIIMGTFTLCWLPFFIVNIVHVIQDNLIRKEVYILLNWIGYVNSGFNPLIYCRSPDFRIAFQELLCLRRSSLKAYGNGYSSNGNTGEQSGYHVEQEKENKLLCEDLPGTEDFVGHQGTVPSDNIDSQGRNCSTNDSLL
T1 sequence (P07550 whole entry, the tested form may be a part): as the sequence (P07550 whole entry) above

By IC50 is commonly meant the concentration that inhibits the measured activity by half. Regarding `CN(CCC(=O)NCCOCCOCCOCCOCCC(=O)NCCC(C)(C)NCC(O)COc1cccc2[nH]c3ccccc3c12)C(=O)c1c(F)c(F)c(F)c(F)c1C1=c2cc3c4c(c2Oc2c1cc1c5c2CCCN5C(C)(C)C=C1CS(=O)(=O)O)CCC[N+]=4C(C)(C)C=C3CS(=O)(=O)[O-]` (centres unmarked) [Carazolol-KK114 (24)], the IC50 in test [1] (17 nM isoprenaline, 30 min incubation time, read-out: IC50) is 444 ± 79 nM; in test [1] (displacement of 17 nM isoprenaline, readout immediately after addition of ligands (0 min), read-out: IC50 (mean ± SD)), 2450 ± 494 nM. Moreover, the Ki in test [1] (Cheng-Prusoff from IC50 right after addition of ligands, 17 nM isoprenaline, read-out: Ki app (mean ± SD)) stood at 162 ± 76 nM; in test [1] (measurement 30 min after addition of the ligands, read-out: Ki app), 29.3 ± 15 nM. For the same compound, the no-wash imaging staining entry in test [2] is on record as “specific staining”.
